The subject of series [1] is MP2 cells. Put plainly: Viability (Crystal Violet) and drug interaction (R index). In kind it is cell-based, human. The conditions noted are these: CTPI-2 with either cisplatin or AZD9291, 5 days. The method, then:
(§1) Cellular proliferation and cytotoxicity assays. […] The cells were then washed with 1×PBS and fixed with cold 100% methanol at−20° C. for 20 minutes. Methanol was washed off and the cells were stained with 0.5% crystal violet dissolved in 25% methanol and water at 4° C. for 20 minutes. The staining was washed off using deionized (DI) water and the plate was dried overnight. On the second day, 100 mM sodium citrate in 50% ethanol and 50% water was added to the wells and absorbance at 550 nm was measured and corrected with readings at 405 nm. In other experiments, cell viability was assessed by trypan blue exclusion and visual count of the live cells was performed.
(§2) Statistical methods for drug interactions. […] Sexp/Sobs=1.0 denotes an additive interaction, while >1.0 denotes a synergistic interaction. R index values approaching 2.0 are indicative of strong synergy.

For series [2], the system named is MP3 cells. The description is as above. In kind it is cell-based, human. Particulars: CTPI-2 with either cisplatin or AZD9291, 5 days. The method, then: as §1, §2
For series [3], the system named is MP1 cells. The description is as above. In kind it is cell-based, human. The protocol: as §1, §2
The test system of series [4] is H1299 cells. Put plainly: Citrate levels in mitochondrial or cytoplasmic fractions. The series is classed as cell-based, human. The conditions noted are these: 4 hours. The protocol:
(§3) Cells, reagents, antibodies, primers. The H1299 cell lines and other cell lines employed in this study were obtained from ATCC or from the tissue culture core facility at LCCC. Cells were grown in Dulbecco's Modified Eagle's Medium (DMEM, 25 mM glucose, with glutamine and pyruvate from Invitrogen; Carlsbad, CA) and supplemented with 10% fetal calf serum (FCS). […] The SLC25A1 specific shRNA vectors were purchased from Sigma. The vector expressing human SLC25A1 untagged or Flag-Myc epitope tagged were from Origene; Rockville, MD (#SC120727 and RC200657, respectively). The anti-SLC25A1 antibody used in immuno-blot was from Santa Cruz Biotech, #sc-86392 employed at 1:1000 dilution. Citrate, lactate, and PFK measurements were performed by using commercially available kits (Biovision (Milpitas, CA)).
Mitochondria isolation and cellular sub-fractionation. Mitochondria and cytoplasmic fractions were prepared as follows. Cells were collected in PBS for 5′, then the pellet was e-suspended in 5 packed cell volumes of mitochondria buffer (250 mM sucrose; 20 mM HEPES (7.4); 10 mM KCl, 1.5 mM MgCl2; 1 mM EDTA; 1 mM EGTA 0.5 M, supplemented with freshly added PMSF and 1 mM […]). Cell lysates were passed through a 25 G needle 10 times, then 5 times through a 27 G needle, followed by incubation on ice for 10-15 minutes. Extracts were centrifuged at 720 G for 5 minutes. The supernatant was centrifuged again at 10000 G and the derived pellet provided the mitochondrial fraction and the supernatant provided the cytoplasmic fraction. To extract the mitochondria for measurement of citrate, the pellet from the previous centrifugation was resuspended in PBS and subjected to 3 cycles of freeze-and-thaw in dry ice immersed in ethanol. The fraction was centrifuged again and re-suspended in PBS. The supernatant (containing cytosolic and membrane fractions) was centrifuged multiple times to eliminate particulate material, and was used as the cytosolic fraction.

Series [5] deals with phosphofructokinase (PFK). Put plainly: Phosphofructokinase activity in cells. In kind it is cell-based, human. Particulars: 3 hours. The method, then: as §3
For series [6], the system named is MP2 cells. The series can be described thus: Tumor xenograft in immuno-compromised mice. In kind it is in vivo. The conditions noted are these: co-treatment with AZD9291, relative to AZD9291 alone. The method, then:
(§4) Mice and treatments. To produce tumor xenografts, 5×10^6 cells derived from either monolayer cultures or GMSC expanded spheres were dissociated with Accutase, resuspended in PBS, and injected subcutaneously in the flanks of female balb athymic mice. Once detectable tumors started to form, their sizes were measured with a caliper in three dimensions and mice were randomized in the different treatment groups. […] Cisplatin was administered at 26 mg/kg every three or four days. AZD9291 was administered at 25/mg/Kg every 3 days. Serial measurements were made every day after the identification of the initial tumor mass to determine growth curves in vivo. Tumor volume was calculated using the formula for a prolate spheroid: volume=[…], where a is the width and b is the length. All animals were sacrificed when the tumors exceeded 1.5 cm. At the completion of experiments, tumors were excised, weighed, and the statistical significances of differences in tumor volume were assessed. Animals were monitored once a week for the presence of signs of disease, particularly neurological disturbances or weight loss, and they were weighed periodically.
(§5) Statistics. For the animal studies, power calculations for each treatment group were first determined. The number of animals was calculated to detect a 50% difference at alpha=0.05 and power=0.8. Statistical significance was assessed using both unpaired, two-tailed Student t test, and analysis of variance (ANOVA). Significant differences are indicated using the standard […] scale (P<0.05, significant; P<0.01, highly significant; P<0.001, extremely significant).

In series [7] the test system is MP1 cells. The series can be described thus: Tumor xenograft in immuno-compromised mice. The series is classed as in vivo. The protocol: as §4, §5
In series [8] the test system is MP1 cells. The series can be described thus: Apoptosis by annexin V and PI flow cytometry. In kind it is cell-based, human. The protocol:
Flow cytometry. Tumor cells were trypsinized and washed in 1×PBS. The cells were then stained with the antibodies of choice: CD166-PE (Biolegend), CD133-647 (Biolegend), or CD44 (Biolegend), in 1% BAS-PBS. The cell cycles of monolayers or spheres of the cells were analyzed by fixing the cells in cold 75% ethanol. The annexin V (Biolegend) and propidium iodide (Biolegend) experiments were carried out.
On the technique in general: A flow cytometer gives signals particle by particle.

For series [9], the system named is H1299 cells. Put plainly: Proliferation / viability in monolayer (2D) cultures. In kind it is cell-based, human. The protocol: Cellular proliferation and cytotoxicity assays. The proliferative capacity of cells was assessed by plating cells in triplicate at a concentration of 2,000 to 10,000 cells/well in 96 well plates in triplicate, with or without drug treatment for 48 hours. The cells were then washed with 1×PBS and fixed with cold 100% methanol at−20° C. for 20 minutes. Methanol was washed off and the cells were stained with 0.5% crystal violet dissolved in 25% methanol and water at 4° C. for 20 minutes. The staining was washed off using deionized (DI) water and the plate was dried overnight. On the second day, 100 mM sodium citrate in 50% ethanol and 50% water was added to the wells and absorbance at 550 nm was measured and corrected with readings at 405 nm. In other experiments, cell viability was assessed by trypan blue exclusion and visual count of the live cells was performed.

Regarding `O=C(O)c1ccccc1NS(=O)(=O)c1ccc(Cl)c([N+](=O)[O-])c1` [CTPI-2], the “re-sensitization, type of drug interaction (R index)” value in series [1] is given as “starkly synergistic”; in [2], “starkly synergistic”; in [3] (CTPI-2 with either cisplatin or AZD9291, 5 days), “starkly synergistic”. Further, the “sensitivity of a single cisplatin-resistant clone” value in [3] (co-treatment with cisplatin (FIG. 15D)) is reported as “re-sensitized to cisplatin”. Further, the cytoplasmic citrate entry in series [4] (2D cultures) was “reduction of cytoplasmic citrate”. Moreover, the values for the mitochondrial citrate result in [4] (2D cultures) and in series [4] (spheres) were “induced accumulation of mitochondrial citrate” and “starkly decreased mitochondrial citrate”, respectively. The cytosolic citrate entry in [4] (spheres) is listed as “without affecting the cytosolic citrate”. For the same compound, the PFK activity entry in series [5] (monolayer differentiated cultures) is recorded as “enhanced”; in series [5] (spheres), “unchanged”. For the same compound, the “tumor growth inhibition, combination” value in [6] is listed as “prominent enhancement of tumor growth inhibition”; in series [7] (CTPI-2 added to the cisplatin regimen), “very significant”. Further, the “tumor growth inhibition, single agent” value in series [7] (26 mg/Kg alternate days i.p., GMSC-derived versus monolayer-derived tumors) was “more effective in inhibiting the growth of GMSC-derived MP1 tumors”. In addition, the body weights result in [7] (26 mg/Kg at alternate days intra-peritoneally) is recorded as “remained unchanged”. Further, in [7] (26 mg/Kg at alternate days intra-peritoneally, entire treatment period), the tolerability result is given as “well tolerated”. Further, in series [7] (GMSC-derived tumors (FIG. 7F)), the “stem cell markers in tumors (immuno-blot)” value is recorded as “dramatic reduction”. The tumor doubling times entry in [7] (relative to mock- and cisplatin-treated groups) is “significantly extended the tumor doubling times”. Also, the apoptosis entry is recorded as “strong pro-apoptotic effect” in series [8] (co-treated with cisplatin and CTPI-2); “did not induce apoptosis” in series [8] (drug alone). Also, the “proliferation of cells expressing the SLC25A1-shRNA” value in series [9] (SLC25A1-shRNA lentivirus, live cells counted after one week) was “failed to inhibit proliferation”. In addition, the “anti-proliferative activity, ranges of concentrations” value in series [9] (monolayer or methylcellulose single cells (FIG. 3J)) is listed as “anti-proliferative activity at comparable ranges of concentrations”.

The values are drawn from US12016834B2, “Small molecule inhibitors of SLC25A1” (GEORGETOWN UNIVERSITY, priority 2017, dated 2024).
